Tests used:
Assay type in all cases: cell-based
[1] = system: Salmonella Typhimurium and Klebsiella pneumoniae; test: Two-step CLICK labeling with or without EDA, PIPER non-capture assay; conditions: 1 mM EDA, last 30 min of incubation; 25 μM CF488 picolyl azide
Procedure: FIG. 7 depicts both components of the two-step CLICK reaction are required for cell labeling. Salmonella Typhimurium (top panel) and Klebsiella pneumoniae (bottom panel) were grown overnight at 37° C. The next day, cells were diluted into fresh media and grown until they reached log-phase. The last 30 min of incubation were carried out in the presence or absence of 1 mM of EDA (D-propargylglycine, AK Scientific, Union City, CA). Cells were harvested by centrifugation (10 min 10,000 g), and supernatant was discarded. Bacteria were then washed, fixed by incubation with 4% paraformaldehyde, pelleted by centrifugation (10 min 10,000 g), and supernatant was discarded. […] An automated bacterial image recognition algorithm determined labeled cell counts (graphs).

Pseudomonas = test: Two-step labeling with EDA versus NADA-Green, PIPER counts relative to SYBR labeling; conditions: 1 mM EDA 30 minutes plus click reaction solution, compared with 1 mM NADA-Green 60-90 minutes
Source text: Universal labeling of all bacteria presents some challenges. D-amino acid analogs must first penetrate the outer membrane of gram-negative bacteria to be incorporated into peptidoglycan. The smaller size of the “clickable” D-amino acids compared to the FDAAs helps achieve higher labeling efficiency for some gram-negative bacteria. Accordingly, and for example, FIGS. 11A-B depict two-step labeling using the “clickable” D-amino acid, EDA, which improves detection of Pseudomonas. Log phase Pseudomonas growing at 37° C. in BHI (with [Supplemented BHI, red bars] or without [blue bars] supplementation with 50 mM glucose and 10 mM sodium pyruvate) was incubated for 60-90 minutes with 1 mM NADA-Green (Bio-Techne, Minneapolis, MN); or for 30 minutes in the presence or absence of 1 mM clickable D-amino acid, EDA (D-propargylglycine, AK Scientific, Union City, CA). For the unlabeled cells or cells labeled with NADA-Green, the cells were pelleted after incubation and resuspended in 1×PBS. For the cells grown in the presence or absence of EDA, the cells were pelleted after incubation by centrifugation (10 min 10,000 g), and supernatant was discarded. Bacteria were washed with 1 mL of 1× PBS, pelleted by centrifugation again (10 min 10,000 g), and supernatant was discarded. […]

[2] = system: innate live bacterial populations in poultry facility swabs; test: 3-step metabolic labeling of poultry facility swabs with or without EDA, PIPER
Procedure: Experimental Detail: Swab samples were collected using sponge sticks (3M, Saint Paul, MN) soaked in Letheen broth (samples G, Q) or Neutralizing buffer (sample H). Samples were stored on ice and processed within 24 hours after collection. Eluents from the sponges were aseptically extracted and the rest was frozen at −80° C. until the time of analysis. Prior to 3-step metabolic labeling, an aliquot from each eluent was removed for serial dilution and plating on APC petrifilm (3M, Saint Paul, MN) and incubated as per manufacturer instructions to evaluate the number of total viable bacteria by the “gold standard” method. Each eluent sample was divided into two aliquots for incubation with EDA or without EDA, as a control for non-specific staining with the fluorophore. The 1st step of labeling was carried out by adding 5 μg/mL chloramphenicol and 1 mM EDA, where indicated, followed by 90 min incubation at 37° C. […]
FIG. 24 depicts how 3-step metabolic labeling detects innate live bacterial populations in poultry facility swabs. […] To convert the PIPER counts into the number of live bacteria per swab, the values were corrected for the volume of the viewing window relative to the total sample volume loaded into the cartridge lane, and the fraction of the total eluent volume analyzed.

Question: C#CC[C@@H](N)C(=O)O [EDA, D-propargylglycine] was tested. Which “signal of click labeling in the presence or absence of EDA” value [1] did it give?
Answer: No signal is observed when the click reagents are added in the absence of EDA

Question: And the “detection efficiency, cell counts relative to counts obtained by SYBR labeling” value (Pseudomonas)?
Answer: Highest detection efficiency

Question: And the “increase in PIPER cell counts over (-EDA) control” value ([2]; 1 mM EDA, 90 min at 37° C.)?
Answer: ~1.5 log

Question: What about the “signal on omitting EDA from the 1st step of labeling” value ([2]; swab samples H, G and Q) of the same compound?
Answer: dramatic reduction of the signal

From patent US20250354192A1, “METHODS FOR QUANTIFYING LIVE BACTERIA” (priority 2022, published 2025)
